# Read-outs that look alike come from different tables or passages of the source.
# Target: T1, F508del in NIH 3T3 cells (Homo sapiens, UniProt P13569, DEL508-508)
# T1 construct: expressed in transfected cells
# Test: 3T3 assay: membrane potential optical assay for F508del correction
# Assay type: cell-based
# Settings: for EC50: read-out: 3T3 EC50
# From the text: 1. Membrane Potential Optical Methods for Assaying F508del Modulation Properties of Compounds
# The assay utilizes fluorescent voltage sensing dyes to measure changes in membrane potential using a fluorescent plate reader (e.g., FLTPR III, Molecular Devices, Inc.) as a readout for increase in functional F508del in NIH 3T3 cells. The driving force for the response is the creation of a chloride ion gradient in conjunction with channel activation by a single liquid addition step after the cells have previously been treated with compounds and subsequently loaded with a voltage sensing dye.
# 2. Identification of Corrector Compounds
# To identify correctors of F508del, a single-addition HTS assay format was developed. This HTS assay utilizes fluorescent voltage sensing dyes to measure changes in membrane potential on the FLIPR III as a measurement for increase in gating (conductance) of F508del in F508del NUT 3T3 cells. The F508del NUT 3T3 cell cultures were incubated with the corrector compounds at a range of concentrations for 18-24 hours at 37° C., and subsequently loaded with a redistribution dye. The driving force for the response is a Cl^− ion gradient in conjunction with channel activation with forskolin in a single liquid addition step using a fluorescent plate reader such as FLIPR III.
# Bath Solution #1: (in mM) NaCl 160, KCl 4.5, CaCl2 2, MgCl2 1, HEPES 10, pH 7.4 with NaOH.
# Chloride-free bath solution: Chloride salts in Bath Solution #1 (above) are substituted with gluconate salts.
# NIH3T3 mouse fibroblasts stably expressing F508del were used for optical measurements of membrane potential. The cells were maintained at 37° C. in 5% CO2 and 90% humidity in Dulbecco's modified Eagle's medium supplemented with 2 mM glutamine, 10% fetal bovine serum, 1×NEAA, b-ME, 1×pen/strep, and 25 mM HEPES in 175 cm^2 culture flasks. For all optical assays, the cells were seeded at ˜20,000/well in 384-well Matrigel-coated plates. For the correction assays, the cells were cultured at 37° C. with and without compounds for 16-24 hours.
# [1] = NIH3T3, NIH 3T3 cells, F508del, read-out: 3T3 Max Activity (%)
# [2] = NIH3T3, read-out: 3T3 Max Activity (%)
# T1 sequence (P13569 with tags, fused parts or gaps DEL508-508): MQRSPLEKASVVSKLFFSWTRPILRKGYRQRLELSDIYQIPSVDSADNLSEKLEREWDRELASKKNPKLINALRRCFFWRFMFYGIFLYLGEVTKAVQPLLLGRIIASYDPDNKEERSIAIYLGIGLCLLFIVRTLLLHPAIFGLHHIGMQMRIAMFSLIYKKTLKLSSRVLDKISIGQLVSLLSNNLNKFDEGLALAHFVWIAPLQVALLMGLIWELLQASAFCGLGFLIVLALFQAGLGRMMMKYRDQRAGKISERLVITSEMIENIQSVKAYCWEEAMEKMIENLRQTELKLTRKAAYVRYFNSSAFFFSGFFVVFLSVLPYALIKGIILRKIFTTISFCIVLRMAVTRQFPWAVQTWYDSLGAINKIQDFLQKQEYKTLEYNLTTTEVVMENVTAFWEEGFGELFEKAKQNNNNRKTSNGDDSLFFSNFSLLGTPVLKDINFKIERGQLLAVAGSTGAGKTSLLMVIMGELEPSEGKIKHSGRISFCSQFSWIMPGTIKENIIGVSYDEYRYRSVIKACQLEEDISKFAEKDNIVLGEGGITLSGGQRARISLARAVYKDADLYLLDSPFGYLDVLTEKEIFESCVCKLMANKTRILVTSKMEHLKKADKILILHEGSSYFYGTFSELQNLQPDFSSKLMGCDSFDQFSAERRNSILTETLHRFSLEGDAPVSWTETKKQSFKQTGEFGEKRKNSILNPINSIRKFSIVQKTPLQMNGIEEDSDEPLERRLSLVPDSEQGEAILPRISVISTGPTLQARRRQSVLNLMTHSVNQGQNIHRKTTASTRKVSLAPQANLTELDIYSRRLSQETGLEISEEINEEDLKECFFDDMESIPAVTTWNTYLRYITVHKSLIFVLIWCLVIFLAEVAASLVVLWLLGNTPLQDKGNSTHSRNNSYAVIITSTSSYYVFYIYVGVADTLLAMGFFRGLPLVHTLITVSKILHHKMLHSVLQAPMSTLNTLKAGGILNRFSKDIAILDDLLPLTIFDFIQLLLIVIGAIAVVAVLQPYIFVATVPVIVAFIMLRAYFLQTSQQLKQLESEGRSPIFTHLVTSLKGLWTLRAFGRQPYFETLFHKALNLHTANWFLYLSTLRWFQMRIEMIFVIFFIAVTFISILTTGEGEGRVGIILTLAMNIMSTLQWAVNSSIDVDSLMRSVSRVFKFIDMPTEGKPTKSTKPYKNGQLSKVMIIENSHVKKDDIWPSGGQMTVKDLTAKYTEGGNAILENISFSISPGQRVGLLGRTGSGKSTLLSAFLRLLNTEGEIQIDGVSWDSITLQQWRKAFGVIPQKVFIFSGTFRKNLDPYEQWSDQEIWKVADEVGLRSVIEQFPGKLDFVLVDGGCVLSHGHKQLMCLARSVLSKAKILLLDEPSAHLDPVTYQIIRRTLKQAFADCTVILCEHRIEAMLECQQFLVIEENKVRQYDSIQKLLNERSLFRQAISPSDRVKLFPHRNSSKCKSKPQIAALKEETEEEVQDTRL
Emax [1] [%],"EC50 (NIH 3T3 cells, F508del) [µM]",SMILES,Emax [2] [%]
30 to 60,3 to 30,"COc1ccccc1Nc1nc(-c2sc(NS(=O)(=O)c3ccccc3)nc2C)cs1 [Compound 29, N-[5-[2-(2-methoxyanilino)thiazol-4-yl]-4-methyl-thiazol-2-yl]benzenesulfonamide]",–
< 30,–,"CCCNC(=O)c1sc(NS(=O)(=O)c2ccccc2)nc1-c1ccccc1 [Compound 39, 2-(benzenesulfonamido)-4-phenyl-N-propyl-thiazole-5-carboxamide]",–
> 60,3 to 30,"CCOC(=O)c1sc(NS(=O)(=O)c2ccccc2)nc1-c1ccccc1 [Compound 24, ethyl 2-(benzenesulfonamido)-4-phenyl-thiazole-5-carboxylate]",–
30 to 60,1 to 3,"O=S(=O)(Nc1cc(-c2ccccc2)nc(Oc2ccccc2)n1)c1ccccc1 [Compound 130, N-(2-phenoxy-6-phenylpyrimidin-4-yl)benzenesulfonamide]",–
< 30,–,"C=C(C)c1cn(-c2c(C)cc(C)cc2C)nc1NS(=O)(=O)c1ccccc1 [Compound 97, N-[4-isopropenyl-1-(2,4,6-trimethylphenyl)pyrazol-3-yl]benzenesulfonamide]",–
> 60,3 to 30,"Cc1ccc(-c2nc(NS(=O)(=O)c3ccccc3)ccc2C)cc1C [Compound 134, N-[6-(3,4-Dimethylphenyl)-5-methyl-2-pyridyl]benzenesulfonamide]",–
> 60,1 to 3,"Cc1ccc(-c2cc(NS(=O)(=O)c3ccccc3)nc(-c3ccc(C)cc3)c2)cc1 [Compound 143, N-[4,6-bis(p-tolyl)-2-pyridyl]benzenesulfonamide]",–
> 60,1 to 3,"CC(C)=Cc1cc(NS(=O)(=O)c2ccccc2)nn1-c1c(C)cc(C)cc1C [Compound 51, N-[5-(2-methylprop-1-enyl)-1-(2,4,6-trimethylphenyl)pyrazol-3-yl]benzenesulfonamide]",–
30 to 60,1 to 3,"O=c1c(NS(=O)(=O)c2ccccc2)nc(-c2ccccc2)cn1-c1ccccc1 [Compound 120, N-(3-oxo-4,6-diphenyl-pyrazin-2-yl)benzenesulfonamide]",–
> 60,3 to 30,"CCc1sc(NS(=O)(=O)c2ccccc2)nc1-c1ccccc1 [Compound 21, N-(5-ethyl-4-phenyl-thiazol-2-yl)benzenesulfonamide]",–
30 to 60,–,"Cc1ccc(-n2nc(NS(=O)(=O)c3ccccc3)cc2C(C)(C)C)cc1 [Compound 80, N-[5-tert-butyl-1-(p-tolyl)pyrazol-3-yl]benzenesulfonamide]",–
> 60,1 to 3,"COc1ccccc1-c1cc(NS(=O)(=O)c2ccccc2)nn1-c1c(C)cc(C)cc1C [Compound 60, N-[5-(2-methoxyphenyl)-1-(2,4,6-trimethylphenyl)pyrazol-3-yl]benzenesulfonamide]",–
> 60,1 to 3,"O=S(=O)(Nc1cc(Oc2ccccc2)cc(-c2ccccc2)n1)c1ccccc1 [Compound 136, N-(4-phenoxy-6-phenyl-2-pyridyl)benzenesulfonamide]",–
30 to 60,1 to 3,"Cc1ccc(-c2cn(Cc3ccccc3)nc2NS(=O)(=O)c2ccccc2)cc1 [Compound 101, N-[1-benzyl-4-(p-tolyl)pyrazol-3-yl]benzenesulfonamide]",–
> 60,1 to 3,"C/C=C/c1ccc(NS(=O)(=O)c2ccccc2)nc1Oc1ccccc1 [Compound 141, N-[6-phenoxy-5-[(E)-prop-1-enyl]-2-pyridyl]benzenesulfonamide]",–
30 to 60,< 1,"Cc1cc(C)c(-n2nc(NS(=O)(=O)c3ccccc3)cc2-c2ccc(Cl)cc2)c(C)c1 [Compound 56, N-[5-(4-chlorophenyl)-1-(2,4,6-trimethylphenyl)pyrazol-3-yl]benzenesulfonamide]",–
> 60,< 1,"Cc1cc(C)c(-n2nc(NS(=O)(=O)c3ccccc3)cc2-c2ccccc2Oc2ccccc2)c(C)c1 [Compound 55, N-[5-(2-phenoxyphenyl)-1-(2,4,6-trimethylphenyl)pyrazol-3-yl]benzenesulfonamide]",–
> 60,1 to 3,"C=C(C)c1cc(NS(=O)(=O)c2ccccc2)nn1-c1c(C)cc(C)cc1C [Compound 65, N-[5-isopropenyl-1-(2,4,6-trimethylphenyl)pyrazol-3-yl]benzenesulfonamide]",–
> 60,< 1,"CCOC(=O)C1=C(c2ccccc2)N=C(NS(=O)(=O)c2ccccc2)SC1c1ccccc1 (stereo not shown) [Compound 116, ethyl 2-(benzenesulfonamido)-4,6-diphenyl-6H-1,3-thiazine-5-carboxylate]",–
> 60,1 to 3,"Cc1ccc(C)c(-c2nc(NS(=O)(=O)c3ccccc3)ccc2C)c1 [Compound 138, N-[6-(2,5-Dimethylphenyl)-5-methyl-2-pyridyl]benzenesulfonamide]",–
< 30,–,"O=S(=O)(Nc1nn(-c2cccc(Cl)c2)cc1-c1ccc(Cl)cc1)c1ccccc1 [Compound 88, N-[1-(3-chlorophenyl)-4-(4-chlorophenyl)pyrazol-3-yl]benzenesulfonamide]",–
< 30,–,"Cc1cccc(C)c1-c1cnc(Oc2ccccc2)c(NS(=O)(=O)c2ccccc2)n1 [Compound 121, N-[6-(2,6-dimethylphenyl)-3-phenoxy-pyrazin-2-yl]benzenesulfonamide]",–
< 30,–,"Cc1cc(C)c(-n2cc(Br)c(NS(=O)(=O)c3ccccc3)n2)c(C)c1 [Compound 99, N-[4-bromo-1-(2,4,6-trimethylphenyl)pyrazol-3-yl]benzenesulfonamide]",–
> 60,< 1,"O=S(=O)(Nc1cc(-c2ccccc2)cc(Oc2ccccc2)n1)c1ccccc1 [Compound 142, N-(6-phenoxy-4-phenyl-2-pyridyl)benzenesulfonamide]",–
< 30,–,Cc1cc(C)c(-n2cc(C(C)C)c(NS(=O)(=O)c3ccccc3)n2)c(C)c1 [Compound 98],–

SMILES,Emax [1] [%],"EC50 (NIH 3T3 cells, F508del) [µM]",Emax [2] [%]
"Cc1cccc(-c2cc(NS(=O)(=O)c3ccccc3)nn2-c2c(C)cc(C)cc2C)c1 [Compound 48, N-[5-(m-tolyl)-1-(2,4,6-trimethylphenyl)pyrazol-3-yl]benzenesulfonamide]",–,< 1,> 60
"O=S(=O)(Nc1onc(-c2ccc(Cl)cc2)c1-c1ccc(Cl)cc1)c1ccccc1 [Compound 1, N-[3,4-bis(4-chlorophenyl)isoxazol-5-yl]benzenesulfonamide]",–,1 to 3,30 to 60
"CCCc1oc(NS(=O)(=O)c2ccccc2)nc1-c1ccccc1 [Compound 2, N-(4-phenyl-5-propyl-oxazol-2-yl)benzenesulfonamide]",–,3 to 30,30 to 60
"COc1ccccc1C1(c2cnc(NS(=O)(=O)c3ccccc3)s2)CC1 [Compound 25, N-[5-[1-(2-methoxyphenyl)cyclopropyl]thiazol-2-yl]benzenesulfonamide]",–,3 to 30,> 60
"COc1ccc(Cl)cc1Nc1nc(-c2sc(NS(=O)(=O)c3ccccc3)nc2C)cs1 [Compound 27, N-[5-[2-(5-chloro-2-methoxy-anilino)thiazol-4-yl]-4-methyl-thiazol-2-yl]benzenesulfonamide]",–,1 to 3,30 to 60
"Cc1ccc(-c2nc(NS(=O)(=O)c3ccccc3)oc2-c2ccc(C)cc2)cc1 [Compound 3, N-[4,5-bis(p-tolyl)oxazol-2-yl]benzenesulfonamide]",–,1 to 3,> 60
